Experimental data taken from US20090098050A1, “CALCIUM BINDING PEPTIDES” (THE REGENTS OF THE UNVERSITY OF CALIFORNIA, priority 2005, published 2009).
No end group written: not given here.

Tests used:
[1] = Binding of fluorescein-labeled peptides to hydroxyapatite nanocrystals (Langmuir isotherm); settings: Langmuir fit; for KA, affinity constant of the peptide for the hydroxyapatite surface: fluorescein-labeled peptide 0-100 μM, 0.3 mg hydroxyapatite, ten minutes
Description: FIG. 1: Binding affinities of DSS and DSS variant peptides for hydroxyapatite and tooth surfaces. A-C. Fluorescein-labeled peptides at concentrations ranging from 0-100 μM were incubated with 0.3 mg of hydroxyapatite nanocrystals (specific surface area=100 m^2/g) for ten minutes, followed by removal of the hydroxyapatite by centrifugation. The amount of peptide in the mixture before and after hydroxyapatite removal was determined by Abs480. Isotherms were plotted and fit to the Langmuir equation to extract values for KA, a constant reflecting the affinity of the peptide for the hydroxyapatite surface. D. Sagitally sectioned human teeth were incubated with 12.5 μM 5(6) carboxyfluorescein-labeled 6DSS peptide for ten minutes, followed by rinsing. Peptide binding to tooth surfaces was visualized by Confocal Laser Scanning Microscopy (CLSM) using blue laser illumination (λA=488 nm) and a FITC emission filter. Left side, light colored region: dentin. Right side, dark colored region: enamel.
Four DSS peptides containing two (2DSS, SEQ ID NO:12), four (4DSS, SEQ ID NO:13), six (6DSS, SEQ ID NO:14), or eight(8DSS, SEQ ID NO:15) Asp-Ser-Ser (DSS) repeats were generated. Peptides were labeled with fluorescein, and various concentrations of the labeled peptides (0-100 μM) were mixed with a fixed amount (0.3 mg) of hydroxyapatite nanocrystals having a specific surface area of 100 m^2/g (Berkeley Advanced Biomaterials, Inc.). Samples were incubated for ten minutes, followed by removal of the hydroxyapatite by centrifugation. The amount of peptide in the mixture was measured both before and after hydroxyapatite removal by spectroscopic absorbance at 480 nm (the peak absorbance of the fluorescein label). The amount of peptide bound was calculated by comparing the ratio of the final (Af) and initial (Ai) absorbances to the initial concentration (P0) [Pbound=[…]]. Plots were generated illustrating the amount of peptide bound per m^2 of hydroxyapatite surface area versus concentration of unbound peptide at equilibrium. The resulting isotherms were fit to the Langmuir isotherm (x/m=(KANMaxCeq)/(1+KACeq)) (Calis 1995), which describes the binding activity of a molecule in terms of a combination of binding affinity (KA) and avidity (NMax). KA represents the affinity constant of the peptide for the hydroxyapatite surface. In this equation, x/m represents the molar amount of peptide bound per unit of hydroxyapatite surface area, NMax represents the maximum surface concentration (mol/m^2), and Ceq represents the molar concentration of unbound peptide at equilibrium. The Langmuir isotherm describes the binding of molecules to surfaces with the conditions that 1) all binding sites have the same affinity for the peptide, and 2) the peptide will form a monolayer on the surface but cannot accumulate to higher levels. The excellent fit of the Langmuir isotherm to the experimental data validates these conditions, and these affinity constants were used for comparisons between peptides.

[2] = Tissue specific binding of DSS peptides and variants in human teeth (CLSM); settings: 12.5 μM labeled peptide; for Tissue binding pattern in healthy tooth section: nondemineralized teeth
Description: FIG. 8: Fluorescence micrographs showing tissue specificity in the binding of DSS peptides and variants. Adult human teeth were exposed to 12.5 μM 5(6)-carboxyfluorescein-labeled peptide without demineralization, washed extensively, and imaged by CLSM. For each section, multiple scans were collected and assembled in an automated mode to generate panels of images representing an area of 13×13 mm, sufficient in most cases to encompass the whole section. The peptides used for each section are labeled beneath each panel, and within each panel the tooth is oriented with the root toward the top of the image and the crown toward the bottom. Tissue layers are labeled as follows: RTD=Root Tip Dentin; CPD=Circumpulpal Dentin; MD=Mantle Dentin; P=Pulp Cavity Wall; DEJ=Dentin-Enamel Junction; E=Enamel; BE=Basal Enamel; CE=Cortical Enamel; CL=Carious Lesion; PB=Periodontal Bone.
In order to investigate the tissue specificity of DSS peptide binding to tooth tissue, sections of human teeth were exposed to DSS peptides and variants, then imaged by CLSM as described in Example 2. The peptides utilized for these experiments were 8DSS, 8ASS, 8DAA, 8NAA, 4DSS, 4ESS, 4NSS, 4DTT, 4ETT, 4NTT, and 6DSS. Sagittal sections of human teeth extracted during normal clinical practice were polished and then incubated for ten minutes in a solution of the appropriate 5(6) carboxyfluorescein-labeled peptide (12.5 μM) containing 10 mM NaCl and 50 mM HEPES, pH 7.0. Control samples were prepared without peptide. Samples were washed extensively after treatment and imaged by CLSM using blue laser illumination (λ=488 nm) and a FITC emission filter, with identical camera and microscope settings for each sample. For each section, multiple scans were collected and assembled in an automated mode to generate panels of images representing an area of 13×13 mm, sufficient in most cases to encompass the whole section. […] Significant binding was also seen to the edges of the pulp cavity.

[3] = Preferential binding to carious lesions in teeth (CLSM); parameters: species or system human; settings: labeled peptide, settings optimized per sample
Description: FIG. 9: Fluorescence micrographs showing specific binding of DSS peptides and variants to carious lesions in teeth. Adult human teeth were exposed to 12.5 uM 5(6)-carboxyfluorescein-labeled peptide without demineralization, washed extensively, and imaged by CLSM. Microscope and camera settings were optimized separately for each sample. […] White traces on the right side of each panel identify the position of the tooth surface, while arrows indicate the position of the stained lesion.
Sections of human teeth containing obvious carious lesions, which consist of demineralized enamel, were polished and exposed to 5(6)-carboxyfluorescein-labeled DSS peptides and variants using the protocol described in Example 2. The sections were washed extensively and imaged by CLSM using blue laser illumination (λ=488 nm) and a FITC emission filter, with microscope and camera settings adjusted for each sample to optimize the signal detected from each peptide. The images were examined to identify the relative levels of peptide binding in healthy versus carious tissue. […] Given their ability to remineralize at sites of enamel degradation (Example 6), they can also be used to initiate remineralization at sites of enamel degradation such as caries or injury sites without causing inappropriate nucleation on healthy tissue surfaces.

2DSS: peptide containing two Asp-Ser-Ser (DSS) repeats, SEQ ID NO:12 (DSSDSS; calcium binding peptide containing two DSS repeats, 2DSS)
KA, affinity constant of the peptide for the hydroxyapatite surface [1]: 57,000 M^−1

4DSPS: partially phosphorylated four repeat DSS peptide, SEQ ID NO:25 (DSSDSSDSSDSS; also: partially phosphorylated, sites not given here)
NMax, maximum surface concentration (available binding sites on HA surface) [1]: 1.2×10^−7 mol/m^2
KA, affinity constant of the peptide for the hydroxyapatite surface [1]: 83,000 M^−1

4DSS: peptide containing four Asp-Ser-Ser (DSS) repeats, SEQ ID NO:13 (DSSDSSDSSDSS; calcium binding peptide containing four DSS repeats, 4DSS, (DSS)-4)
NMax, maximum surface concentration (available binding sites on HA surface) [1]: 5.8×10^−8 mol/m^2
KA, affinity constant of the peptide for the hydroxyapatite surface [1]: 94,000 M^−1
Tissue binding pattern in healthy tooth section [2]: bound primarily to the mantle dentin
Specificity of binding to carious lesions versus surrounding healthy enamel [3]: highly specific binding to carious lesions
Strength of staining of carious lesions [3]: exceptionally strong staining of carious lesions

4DTT: four repeat peptide containing more sterically hindered hydroxyl groups at second and third positions, SEQ. ID NO. 17 (DTTDTTDTTDTT; variant DSS four repeat peptide containing more sterically hindered hydroxyl groups at second and third positions, 4DTT)
KA, affinity constant of the peptide for the hydroxyapatite surface [1]: 161,000 M^−1
Tissue binding pattern in healthy tooth section [2]: binding patterns similar to those of 4DSS and 4ESS, though at sharply reduced levels

4ESS: four repeat peptide containing a longer sidechain at the first position, SEQ. ID NO. 16 (ESSESSESSESS; variant DSS four repeat peptide containing longer sidechain at first position, 4ESS)
KA, affinity constant of the peptide for the hydroxyapatite surface [1]: 81,000 M^−1
Specificity of binding to carious lesions versus surrounding healthy enamel [3]: highly specific binding to carious lesions
Strength of staining of carious lesions [3]: exceptionally strong staining of carious lesions

4ETT: four repeat peptide containing more sterically hindered hydroxyl groups at second and third positions, SEQ. ID NO. 19 (ETTETTETTETT; variant DSS four repeat peptide containing more sterically hindered hydroxyl groups at second and third positions, 4ETT)
KA, affinity constant of the peptide for the hydroxyapatite surface [1]: 61,000 M^−1
Tissue binding pattern in healthy tooth section [2]: binding patterns similar to those of 4DSS and 4ESS, though at sharply reduced levels
Specificity of binding to carious lesions versus surrounding healthy enamel [3]: highly specific binding to carious lesions

4NAA: label printed only in b88, not defined; probably a misprint (NAANAANAANAA; variant DSS four repeat peptide lacking hydroxyl group at seond and third positions, 4NAA)
Strength of staining of carious lesions [3]: exceptionally strong staining of carious lesions

4NSS: four repeat peptide lacking a charged group at the first position, SEQ. ID NO. 20 (NSSNSSNSSNSS; variant DSS four repeat peptide lacking negatively charged group at first position, 4NSS)
KA, affinity constant of the peptide for the hydroxyapatite surface [1]: 41,000 M^−1
Specificity of binding to carious lesions versus surrounding healthy enamel [3]: highly specific binding to carious lesions

4NTT: four repeat peptide containing more sterically hindered hydroxyl groups at second and third positions, SEQ. ID NO. 18 (NTTNTTNTTNTT; variant DSS four repeat peptide containing more sterically hindered hydroxyl groups at second and third positions, 4NTT)
KA, affinity constant of the peptide for the hydroxyapatite surface [1]: 18,000 M^−1
Binding to fragment of periodontal bone attached to the sample [2]: strong binding
Tissue binding pattern in healthy tooth section [2]: very low levels of binding to the healthy tooth tissue

8ASS: eight repeat peptide lacking a charged group at the first position, SEQ. ID NO. 21 (ASSASSASSASSASSASSASSASS; variant DSS eight repeat peptide lacking negatively charged group at first position, 8ASS)
KA, affinity constant of the peptide for the hydroxyapatite surface [1]: 170,000 M^−1
Specificity of binding to carious lesions versus surrounding healthy enamel [3]: highly specific binding to carious lesions
Strength of staining of carious lesions [3]: exceptionally strong staining of carious lesions

8DAA: eight repeat peptide lacking hydroxyl groups at the second and third positions, SEQ. ID NO. 22 (DAADAADAADAADAADAADAADAA; variant DSS eight repeat peptide lacking hydroxyl group at seond and third positions, 8DAA)
KA, affinity constant of the peptide for the hydroxyapatite surface [1]: 300,000 M^−1
Tissue binding pattern in healthy tooth section [2]: primary binding to the root tip dentin and cortical enamel, as well as to the dentin-enamel junction and the pulp cavity wall
Specificity of binding to carious lesions versus surrounding healthy enamel [3]: highly specific binding to carious lesions
Strength of staining of carious lesions [3]: exceptionally strong staining of carious lesions

8NAA: eight repeat peptide lacking hydroxyl groups at the second and third positions, SEQ. ID NO. 23 (NAANAANAANAANAANAANAANAA; variant DSS eight repeat peptide lacking hydroxyl group at seond and third positions, 8NAA)
KA, affinity constant of the peptide for the hydroxyapatite surface [1]: 20,000 M^−1
Binding to carious lesion present in the sample [2]: did bind somewhat to a carious lesion
Tissue binding pattern in healthy tooth section [2]: very little binding to any healthy tissue
Specificity of binding to carious lesions versus surrounding healthy enamel [3]: highly specific binding to carious lesions
